Assay results from publication PMC3808999 (Molecular cell, 2013).

Key:
WT human STING = WT human STING (Homo sapiens, UniProt Q86WV6, H232R); experiment: IFNβ induction; conditions: L929 cells expressing WT human STING; IFN-β RNA by q-RT-PCR
R232H human STING = R232H human STING (Homo sapiens, UniProt Q86WV6); experiment: IFNβ induction; conditions: L929 cells expressing R232H human STING; IFN-β RNA by q-RT-PCR
R232A human STING = R232A human STING (Homo sapiens, UniProt Q86WV6, H232A); experiment: IFNβ induction; conditions: L929 cells expressing R232A human STING; IFN-β RNA by q-RT-PCR
[1] = target: human STING C-terminal domain (CTD, residues 139–379) (Homo sapiens, UniProt Q86WV6, H232R); experiment: Isothermal titration calorimetry; conditions: direct ITC titration
Chain of human STING C-terminal domain (CTD, residues 139–379) (Q86WV6 139-379 H232R): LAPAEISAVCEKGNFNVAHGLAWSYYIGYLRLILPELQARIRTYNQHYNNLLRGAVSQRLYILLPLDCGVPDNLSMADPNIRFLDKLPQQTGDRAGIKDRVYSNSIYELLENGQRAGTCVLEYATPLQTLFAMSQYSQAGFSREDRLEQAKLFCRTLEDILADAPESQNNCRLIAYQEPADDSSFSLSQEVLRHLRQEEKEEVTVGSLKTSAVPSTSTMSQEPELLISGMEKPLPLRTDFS

Chain of WT human STING (Q86WV6 whole entry H232R): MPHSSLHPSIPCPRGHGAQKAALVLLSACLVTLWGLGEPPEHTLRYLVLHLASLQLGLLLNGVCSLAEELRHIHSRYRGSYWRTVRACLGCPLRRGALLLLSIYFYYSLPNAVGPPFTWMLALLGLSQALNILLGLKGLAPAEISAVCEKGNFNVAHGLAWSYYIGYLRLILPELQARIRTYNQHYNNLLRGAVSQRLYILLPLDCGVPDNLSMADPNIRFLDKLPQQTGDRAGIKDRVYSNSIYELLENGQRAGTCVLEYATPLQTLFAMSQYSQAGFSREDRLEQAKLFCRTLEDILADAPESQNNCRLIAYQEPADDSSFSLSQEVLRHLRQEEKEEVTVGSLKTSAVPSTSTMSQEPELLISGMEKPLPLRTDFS
Chain of R232A human STING (Q86WV6 whole entry H232A, the tested form may be a part): as the sequence (Q86WV6 whole entry H232R) above, with R232A counted along it
Chain of R232H human STING (Q86WV6 whole entry, stated change not applied): as the sequence (Q86WV6 whole entry H232R) above, with R232H counted along it

## poly[I:C]
WT human STING
  IFNβ induction: stimulated IFNβ expression
R232H human STING
  IFNβ induction: stimulated IFNβ expression
R232A human STING
  IFNβ induction: stimulated IFNβ expression

## Nc1nc2c(ncn2[C@@H]2O[C@@H]3COP(=O)(O)O[C@H]4[C@@H](O)[C@H](n5cnc6c(=O)[nH]c(N)nc65)O[C@@H]4COP(=O)(O)O[C@H]3[C@H]2O)c(=O)[nH]1 [c-di-GMP, cyclic di-GMP]
[1]
  heat character of binding to STING: exothermic
